Test: refractive index (Na D-line) (dimensionless); xn = mol fraction of the nth substance listed
Conditions: 101.3 kPa, Liquid, Standard Abbe refractometry

COCCOCCOCCOCCOC [2,5,8,11,14-pentaoxapentadecane] + CCC(C)O
refractive index
Conditions	x2 = 0	x2 = 0.1007	x2 = 0.2003	x2 = 0.3015	x2 = 0.3991	x2 = 0.5011	x2 = 0.6024	x2 = 0.6997	x2 = 0.7998	x2 = 0.9004
288.15 K	1.4345	1.43266	1.43063	1.42851	1.42627	1.42333	1.41994	1.41632	1.41171	1.40624
293.15 K	1.43238	1.43054	1.42851	1.42637	1.42412	1.42118	1.41778	1.41418	1.4096	1.40412
298.15 K	1.43027	1.42843	1.42637	1.42424	1.42197	1.41902	1.41562	1.41202	1.40743	1.40197
303.15 K	1.42815	1.42631	1.42424	1.4221	1.41983	1.41687	1.41347	1.40983	1.40522	1.39977
308.15 K	1.42603	1.4242	1.42212	1.41998	1.41768	1.41473	1.41133	1.40765	1.40302	1.39751
313.15 K	1.42394	1.42209	1.42001	1.41785	1.4155	1.41255	1.40915	1.40543	1.40077	1.39524
318.15 K	1.42183	1.42003	1.4179	1.41571	1.41339	1.41039	1.40698	1.40327	1.39857	1.393
323.15 K	1.41973	1.41794	1.4158	1.4136	1.41127	1.40823	1.40477	1.40104	1.39628	1.39067

CN1CCCC1=O [N-methylpyrrolidone] + CCC(C)O
refractive index
Conditions	x2 = 0	x2 = 0.1049	x2 = 0.2001	x2 = 0.3009	x2 = 0.4019	x2 = 0.5003	x2 = 0.5995	x2 = 0.7004	x2 = 0.7985	x2 = 0.899
288.15 K	1.47166	1.46489	1.45851	1.45151	1.44431	1.43715	1.42982	1.42227	1.41487	1.40724
293.15 K	1.46952	1.46273	1.45634	1.44937	1.44219	1.43504	1.42772	1.42016	1.41275	1.40512
298.15 K	1.46736	1.46061	1.45418	1.4473	1.44013	1.43298	1.42564	1.41806	1.41063	1.40302
303.15 K	1.4652	1.45844	1.45203	1.44515	1.43799	1.43083	1.42349	1.41587	1.40842	1.40081
308.15 K	1.46306	1.45632	1.44987	1.44301	1.43583	1.42867	1.42131	1.41372	1.40626	1.39861
313.15 K	1.46095	1.45416	1.44773	1.44083	1.43366	1.42651	1.41919	1.41155	1.40406	1.39638
318.15 K	1.45891	1.45204	1.44559	1.43868	1.43152	1.42436	1.41701	1.40934	1.40181	1.39408
323.15 K	1.4568	1.44996	1.4435	1.43654	1.42934	1.42215	1.41481	1.40711	1.39955	1.39172

Source: the NIST ThermoML archive (doi:10.1021/je400486p)
